The record followed here is patent EP1156045A1, “AMIDE DERIVATIVES AND DRUG COMPOSITIONS” (Nippon Shinyaku Co., Ltd., priority 1999, dated 2000).

The structures appear in SMILES notation. Structures can show the parent of a compound that is named as a salt.

In one series the test system is TGF-β1. The experiment in a line: Inhibition of TGF-β production (TGF-β1 released into the medium, ELISA). Format: cell-based. Particulars: human mesangial cells immortalized with SV40, cultured 4 days, TGF-β1 released during the last 2 days; for inhibition at 1 µg/mL: Mesangial cell, read-out: Rate of inhibition (%). Here is the method: The test was carried out according to the method described in Jpn. J. Pharmacol, 60, 91-96 (1992). That is, human mesangial cells immortalized with SV40 were cultured in 24-well plates, and then the medium was changed to a serum-free medium. The test drugs were added at concentrations of 1 µg/ml or 10 µg/ml, and the cells were cultured for 4 days. The amounts of TGF-β1 (a major type of-TGF-β) released into the medium during the last 2 days were quantified by ELISA kits. The rate of inhibition (%) was calculated from the following formula: Rate of inhibition = (Ta-Tb)/Ta × 100 [formula] In this formula, Ta represents the amount of TGF-β1 released into the medium in the absence of the test drug, and Tb represents the amount of TGF-β1 released into the medium in the presence of the test drug.
In general terms: An ELISA detects its analyte on a solid surface through an enzyme-linked reagent.

In another series the test system is TGF-β. The experiment in a line: Antagonistic action against TGF-β (type I procollagen α2 promoter-luciferase reporter, TGF-β1 stimulation). The class given is cell-based. As to conditions: mink lung epithelial cells (Mv1Lu); drug 1 µg/ml, TGF-β1 10 ng/ml; 24 hours; luciferase activity; read-out: Rate of inhibition (%). Here is the method:
The test was carried out according to the method described in J. Clin. Invest., 86, 1489-1495 (1990) and J. Biol. Chem. 265, 13351-13356 (1990). A chimera plasmid was produced in which the promoter region of type I procollagen α2 gene was ligated with a luciferase gene. This plasmid was then transfected into mink lung epithelial cells (Mv1Lu) to produce a cell line stably expressing the luciferase gene under the control of the […]. The drug (1 µg/ml) and TGF-β1 (10 ng/ml) were added to Mv1Lu cells, which were then cultured for 24 hours. Then, the activity of luciferase in the cells was measured by a chemiluminescence method. The rate of inhibition was calculated from the following formula, the rate of inhibition being defined as 100% when the measured luciferase activity was equal to that in the absence of stimulation with TGF-β1: Rate of inhibition = (Lb-Lc)/(Lb-La) × 100 [formula] In this formula, La represents the luciferase activity in the absence of stimulation with TGF-β1, Lb represents the luciferase activity in the presence of stimulation with TGF-β1, and Lc represents the luciferase activity in the presence of TGF-β1 and the test drug.
A general note: A reporter such as luciferase makes a cellular process visible.

For series [1], the system named is promoter region of the TGF-β1 gene. The series can be described thus: Inhibitory effect on expression of TGF-β mRNA (TGF-β1 promoter-luciferase reporter, TNF-α stimulation). Format: cell-based. Particulars: mink lung epithelial cells (Mv1Lu); drug 1 µg/ml, TNF-α 10 ng/ml; 24 hours; luciferase activity; read-out: Rate of inhibition (%). Here is the method:
The inhibitory effect of the compounds of the present invention on TGF-β production was evaluated by measuring the inhibition of TGF-β mRNA expression according to the method described in J. Biol. Chem., 264, 402-408 (1989). A chimera plasmid was produced in which the promoter region of the TGF-β1 gene was ligated with a luciferase gene. This plasmid was then transfected into mink lung epithelial cells (Mv1Lu) to produce a cell line stably expressing the luciferase gene under the control of the TGF-β1 promoter. The drug (1 µg/ml) and TNF-α (10 ng/ml) were added to Mv1Lu cells, which were then cultured for 24 hours. Then the activity of luciferase in the cells was measured by a chemiluminescence method. The rate of inhibition was calculated from the following formula, the rate of inhibition being defined as 100% when the measured luciferase activity was equal to that in the absence of stimulation with TNF-α: Rate of inhibition = (Le-Lf)/(Le-Ld) × 100 [formula] In this formula, Ld represents the luciferase activity in the absence of TNF-α, Le represents the luciferase activity in the presence of TNF-α, and Lf represents the luciferase activity in the presence of TNF-α and the test drug.

The next series is described as follows: Acute toxicity. Particulars: mice; orally, 300 mg/kg suspension; observed for a week after administration. The class given is in vivo. Here is the method:
Each of the compounds in Examples 1, 5, 6, 33, 34, 39, and 48 was administered.

In the case of `Cl.Cn1c(-c2ccccc2)c(C(=O)N2CCN(c3ccccn3)CC2)c2ccccc21` [Example 6, 1-(1-Methyl-2-phenylindol-3-ylcarbonyl)-4-(2-pyridyl)piperazine hydrochloride], the inhibition (usually the relative decrease from the control value, in per cent) at 1 µg/mL in the series on TGF-β1 (concentration 1 µg/ml) was found to be 30.2%; with TGF-β, 44.6%; in series [1], 50.1%. For the same molecule, the deaths entry in “Acute toxicity” is “No deaths were observed”.
As for `Cc1cc2c(C(=O)N3CCN(c4ccncc4)CC3)c(-c3ccccc3)n(C)c2cc1C.Cl` [Example 39, 1-(1,5,6-Trimethyl-2-phenylindol-3-ylcarbonyl)-4-(4-pyridyl)-piperazine hydrochloride], the inhibition at 1 µg/mL with TGF-β came to 52.4%; in series [1], 27.4%. Moreover, in “Acute toxicity”, the deaths entry is listed as “No deaths were observed”.
For `Cc1ccc2c(c1)c(C(=O)N1CCCN(c3ccc(NS(C)(=O)=O)cn3)CC1)c(-c1ccccc1)n2C` [Example 174, 1-(1,5-Dimethyl-2-phenylindol-3-ylcarbonyl)-4-(5-methane-sulfonylamino-2-pyridyl)homopiperazine], the inhibition at 1 µg/mL in the series with TGF-β was determined as 49.8%; in series [1] it was 24.8%.
`Cc1ccc2c(c1)c(C(=O)N1CCN(c3cccnc3)CC1)c(-c1ccccc1)n2C.Cl.Cl` [Example 33, 1-(1,5-Dimethyl-2-phenylindol-3-ylcarbonyl)-4-(3-pyridyl)piperazine dihydrochloride]: the inhibition at 1 µg/mL turned out to be 50.6% in the series with TGF-β and 43.2% in series [1]. In addition, the deaths entry in “Acute toxicity” was “No deaths were observed”.
Take `Cc1ccc2c(c1)c(C(=O)N[C@H]1C[C@H]3CC[C@@H](C1)N3C)c(-c1ccccc1)n2C.Cl` [Example 117, N-(endo-8-Methyl-8-azabicyclo[3.2.1]octa-3-yl)-1,5-dimethyl-2-phenylindole-3-carboxamide hydrochloride]: the “Rate of inhibition (%)” value in the series on TGF-β1 (concentration 1 µg/ml) came to 47.4%.
For the molecule `Cc1ccc2c(c1)c(C(=O)N1CCCN(c3ccccn3)CC1)c(-c1ccccc1)n2C` [Example 119, 1-(1,5-Dimethyl-2-phenylindol-3-ylcarbonyl)-4-(2-pyridyl)-homopiperazine hydrochloride], the inhibition at 1 µg/mL in the series with TGF-β amounted to 53.8%; in series [1], 39.2%.
As to `Cc1ccc2c(C(=O)N[C@@H]3C[C@H]4CC[C@@H](C3)N4C)c(-c3ccccc3)n(C)c2c1.Cl` [Example 63, N-(endo-8-Methyl-8-azabicyclo[3.2.1]octa-3-yl)-1,6-dimethyl-2-phenylindole-3-carboxamide hydrochloride], the “Rate of inhibition (%)” value in the series with TGF-β1 (concentration 1 µg/ml) amounted to 40.7%.
In the case of `Cl.Cn1c(-c2ccccc2)c(C(=O)N2CCN(c3ccc([N+](=O)[O-])cn3)CC2)c2ccccc21` [Example 48, 1-(1-Methyl-2-phenylindol-3-ylcarbonyl)-4-(5-nitro-2-pyridyl)-piperazine hydrochloride], the inhibition at 1 µg/mL in the series on TGF-β came to 63.7%; in series [1], 74.7%. Further, the deaths entry in “Acute toxicity” was “No deaths were observed”.
With `COC(=O)c1ccc(N2CCCN(C(=O)c3c(-c4ccccc4)n(C)c4ccc(C)cc34)CC2)nc1` [Example 178, 1-(1,5-Dimethyl-2-phenylindol-3-ylcarbonyl)-4-(5-carbomethoxy-2-pyridyl)-homopiperazine], the inhibition at 1 µg/mL with TGF-β amounted to 102%; in series [1], 43%.
With `COc1ccc2c(c1)c(C(=O)NC1CC3CCC(C1)N3C)c(-c1ccccc1)n2C.Cl` (stereo not drawn) [Example 61, N-(endo-8-Methyl-8-azabicyclo[3.2.1]octa-3-yl)-5-methoxy-1-methyl-2-phenylindole-3-carboxamide hydrochloride], the “Rate of inhibition (%)” value with TGF-β1 (concentration 1 µg/ml) turned out to be 69.7%.
Regarding `Cn1c(-c2ccccc2)c(C(=O)N2CC[N+]([O-])(c3ccccn3)CC2)c2ccccc21` [Example 5, 1-(1-Methyl-2-phenylindol-3-ylcarbonyl)-4-(2-pyridyl)piperazine-4-oxide], the inhibition at 1 µg/mL in the series with TGF-β1 (concentration 1 µg/ml) worked out at 20.9%; in the series with TGF-β, 27.4%; in series [1] it was 28.2%. For the same molecule, the deaths result in “Acute toxicity” is recorded as “No deaths were observed”.
On to `Cc1ccc2c(c1)c(C(=O)N1CCN(c3ccc([N+](=O)[O-])cn3)CC1)c(-c1ccccc1)n2C` [Example 58, 1-(1,5-Dimethyl-2-phenylindol-3-ylcarbonyl)-4-(5-nitro-2-pyridyl)-piperazine hydrochloride], for which the figures for the inhibition at 1 µg/mL (in the series with TGF-β1 (concentration 1 µg/ml); in the series on TGF-β; in series [1]) were 27.6%, 34.8% and 30.2%, respectively.
For `Cc1ccc2c(c1)c(C(=O)N1CCCN(c3cccnc3)CC1)c(-c1ccccc1)n2C` [Example 121, 1-(1,5-Dimethyl-2-phenylindol-3-ylcarbonyl)-4-(3-pyridyl)-homopiperazine hydrochloride], the inhibition at 1 µg/mL is 59% with TGF-β and 40.6% in series [1].
With `Cc1ccc2c(c1)c(C(=O)N1CCN(c3ccccn3)CC1)c(-c1ccccc1)n2C.Cl` [Example 1, 1-(1,5-Dimethyl-2-phenylindol-3-ylcarbonyl)-4-(2-pyridyl)piperazine hydrochloride], the inhibition at 1 µg/mL with TGF-β amounted to 31.2%. Also, the deaths result in the series “Acute toxicity” is listed as “No deaths were observed”.
For the molecule `Cc1ccc(=O)n(-c2ccccc2)c1` [Perfenidone, reference compound], the “Rate of inhibition (%)” value in the series on TGF-β1 (concentration 10 µg/ml) came out at 1.7%.
For `CCN(CC)S(=O)(=O)c1ccc(N2CCCN(C(=O)c3c(-c4ccccc4)n(C)c4ccc(C)cc34)CC2)nc1` [Example 183, 1-(1,5-Dimethyl-2-phenylindol-3-ylcarbonyl)-4-(5-diethylamino-sulfonyl-2-pyridyl)homopiperazine], the inhibition at 1 µg/mL with TGF-β turned out to be 79.3%; in series [1], 46.9%.
For `Cn1c(-c2ccccc2)c(C(=O)N2CCCN(c3cccnc3)CC2)c2ccccc21` [Example 120, 1-(1-Methyl-2-phenylindol-3-ylcarbonyl)-4-(3-pyridyl)homopiperazine hydrochloride], the inhibition at 1 µg/mL in the series with TGF-β was 44.9%; in series [1], 27.7%.
With `CC(=O)Nc1ccc(N2CCCN(C(=O)c3c(-c4ccccc4)n(C)c4ccc(C)cc34)CC2)nc1` [Example 180, 1-(1,5-Dimethyl-2-phenylindol-3-ylcarbonyl)-4-(5-acetylamino-2-pyridyl)homopiperazine], the inhibition at 1 µg/mL in the series on TGF-β came out at 48.3%; in series [1] it was 25.5%.
With `Cc1ccc2c(c1)c(C(=O)N1CCN(c3ccncc3)CC1)c(-c1ccccc1)n2C.Cl` [Example 34, 1-(1,5-Dimethyl-2-phenylindol-3-ylcarbonyl)-4-(4-pyridyl)piperazine hydrochloride], the inhibition at 1 µg/mL with TGF-β came to 33.8%. In addition, the deaths entry in “Acute toxicity” was “No deaths were observed”.
In the case of `Cc1ccc2c(c1)c(C(=O)N1CCCN(c3ccc([N+](=O)[O-])cn3)CC1)c(-c1ccccc1)n2C` [Example 129, 1-(1,5-Dimethyl-2-phenylindol-3-ylcarbonyl)-4-(5-nitro-2 pyridyl)homopiperazine], the inhibition at 1 µg/mL in the series on TGF-β was 64.3%.
With `Cn1c(-c2ccccc2)c(C(=O)N2CCCN(c3ccccn3)CC2)c2ccccc21` [Example 118, 1-(1-Methyl-2-phenylindol-3-ylcarbonyl)-4-(2-pyridyl)-homopiperazine dihydrochloride], the inhibition at 1 µg/mL was determined as 51.8% in the series on TGF-β and 48.8% in series [1].
